Laboratory results: patent US8877748B2, “Heterocyclic fused anthraquinone derivatives, manufacturing method and pharmaceutical composition using thereof” (National Defense Medical Center, priority 2012, dated 2014)

test system: PC-3 prostate cancer cell line; assay: SRB assay cell viability, PC-3 prostate cancer cell line; type: cell-based, human; settings: Homo sapiens, PC-3 prostate cancer cell line, Table II prints no unit, μM printed, read-out: SRB assay: 50% inhibition of cancer cell proliferation of sample concentration (IC50) of PC-3 prostate cancer cell line

Compound | IC50
O=C1c2ccccc2C(=O)c2c1cc(O)c1nsnc21 [C4, Potassium 6,11-dioxo-6,11-dihydroanthra[2,1-c][1,2,5]thiadiazol-4-olate] | 18.5 µM
CCCNc1cc2c(c3nsnc13)C(=O)c1ccccc1C2=O [C6, 4-(propylamino)anthra-[2,1-c][1,2,5] thiadiazol-6,11-dione] | 3.25 µM
CCN1CCN(c2cc3c(c4nsnc24)C(=O)c2ccccc2C3=O)CC1 [C9, 4-(4-ethyl-piperazin-1-yl)anthra[2,1-c] [1,2,5]thiadiazol-6,11-dione] | 9.43 µM
O=C1c2ccccc2C(=O)c2c1cc(N1CCCCC1)c1nsnc21 [C11, 4-(piperidine-1-yl)anthra[2,1-c][1,2,5] thiadiazol-6,11-dione] | 1.38 µM
CCCCNc1cc2c(c3nsnc13)C(=O)c1ccccc1C2=O [C12, 4-butylamino-anthra[2,1-c][1,2,5] thiadiazol-6,11-dione] | 1.76 µM
CCNc1cc2c(c3nsnc13)C(=O)c1ccccc1C2=O [C13, 4-ethylamino anthra[2,1-c][1,2,5] thiadiazol-6,11-dione] | 2.97 µM
CCCSc1cc2c(c3nsnc13)C(=O)c1ccccc1C2=O [C17, 4-(n-propylthio)-anthra[2,1-c][1,2,5] thiadiazol-6,11-dione] | 3.69 µM
COc1ccccc1Sc1cc2c(c3nsnc13)C(=O)c1ccccc1C2=O [C23, 4-(2-methoxy-phenyl-thio)anthra[2,1-c] [1,2,5]thiadiazol-6,11-dione] | > 15 µM
O=C1c2ccccc2C(=O)c2c1cc(Sc1ccc(Br)cc1)c1nsnc21 [C24, 4-(4-bromo-phenyl-thio)anthra[2,1-c] [1,2,5]thiadiazol-6,11-dione] | > 15 µM
CC(C)c1ccc(Sc2cc3c(c4nsnc24)C(=O)c2ccccc2C3=O)cc1 [C26, 4-(4-isopropyl-phenyl-thio)anthra[2,1-c] [1,2,5]thiadiazol-6,11-dione] | > 15 µM
O=C1c2ccccc2C(=O)c2c1cc(Sc1ccc(F)cc1)c1nsnc21 [C28, 4-(4-fluoro-phenyl-thio)anthra[2,1-c] [1,2,5]thiadiazol-6,11-dione] | 6.7 µM
O=C1c2ccccc2C(=O)c2c1cc(Sc1ccccc1Cl)c1nsnc21 [C32, 4-(2-chloro-phenylthio)anthra[2,1-c] [1,2,5]thiadiazol-6,11-dione] | > 15 µM
O=C1c2ccccc2C(=O)c2c1cc(Sc1cc(Cl)c(Cl)cc1Cl)c1nsnc21 [C34, 4-(2,4,5-trichloro-phenylthio)anthra[2,1-C] [1,2,5]thiadiazol-6,11-dione] | > 15 µM
O=C1c2ccccc2C(=O)c2c1cc(Sc1cccc(F)c1)c1nsnc21 [C38, 4-(3-fluorophenylthio)anthra[2,1-c][1,2,5] thiadiazol-6,11-dione] | 8.82 µM
O=C1c2ccccc2C(=O)c2c1cc(Sc1cccc(Br)c1)c1nsnc21 [C40, 4-(3-bromophenylthio)anthra[2,1-c][1,2,5] thiadiazol-6,11-dione] | 12.4 µM
Cc1ccc(Sc2cc3c(c4nsnc24)C(=O)c2ccccc2C3=O)cc1 [C44, 4-(4-methyl-phenyl-thio)anthra[2,1-c] [1,2,5]thiadiazol-6,11-dione] | > 15 µM
Cc1cc(C)cc(Sc2cc3c(c4nsnc24)C(=O)c2ccccc2C3=O)c1 [C49, 4-(3,5-dimethyl-phenyl-thio)anthra[2,1-c] [1,2,5]thiadiazol-6,11-dione] | > 15 µM
CCc1ccccc1Sc1cc2c(c3nsnc13)C(=O)c1ccccc1C2=O [C51, 4-(2-ethyl-phenylthio)anthra[2,1-c][1,2,5] thiadiazol-6,11-dione] | > 15 µM
CC(C)c1ccccc1Sc1cc2c(c3nsnc13)C(=O)c1ccccc1C2=O [C52, 4-(2-isopropyl-phenyl-thio)anthra[2,1-c] [1,2,5]thiadiazol-6,11-dione] | > 15 µM
O=C1c2ccccc2C(=O)c2c1cc(SCc1ccccc1Cl)c1nsnc21 [C53, 4-(2-chloro-benzylthio)anthra[2,1-C] [1,2,5]thiadiazol-6,11-dione] | 5.84 µM
Cc1cccc(Nc2cc3c(c4nsnc24)C(=O)c2ccccc2C3=O)c1 [C62, 4-(m-tolylamino)anthra[2,1-c][1,2,5] thiadiazol-6,11-dione] | 0.29 µM
O=C1c2ccccc2C(=O)c2c1cc(Nc1cccc(Cl)c1)c1nsnc21 [C63, 4-(3-chloro-phenylamino)anthra[2,1-c] [1,2,5]thiadiazol-6,11-dione] | 2.28 µM

same assay, conditions: Homo sapiens, PC-3 prostate cancer cells, read-out: IC50 in PC-3 prostate cancer cells (cell viability analysis)

Compound | IC50
O=C1c2ccccc2C(=O)c2c1cc(Sc1ccccc1Cl)c1nsnc21 [C32, 4-(2-chloro-phenylthio)anthra[2,1-c] [1,2,5]thiadiazol-6,11-dione] | > 15 µM

same assay, conditions: PC-3 prostate cancer cell line, Table II prints no unit, μM printed, read-out: SRB assay: 50% inhibition of cancer cell proliferation of sample concentration (IC50) of PC-3 prostate cancer cell line

Compound | IC50
4-(2-fluoro-phenyl thio)anthra[2,1-c] [1,2,5]thiadiazol oxazole-6,11-dione [C33] | > 15 µM
4-(2-mercapto-phenyl-thio)anthra[2,1-c] [1,2,5]thiadiazol oxazole-6,11-dione [C36] | > 15 µM
4-(4-ethyl-phenyl-thio)anthra[2,1-c][1,2,5] thiadiazol oxazole-6,11-dione [C54] | 7.5 µM
4-(4-nitrophenyl thio)anthra[2,1-c][1,2,5] thiadiazol oxazole-6,11-dione [C45] | 8.38 µM
O=C1c2ccccc2C(=O)c2c1cc(Sc1cccc(Cl)c1Cl)c1nsnc21 [C30, 4-(2,3-dichloro-phenylthio)anthra[2,1-c] [1,2,5]thiadiazol oxazole-6,11-dione] | 11 µM
CC(C)(C)c1ccc(Sc2cc3c(c4nsnc24)C(=O)c2ccccc2C3=O)cc1 [C31, 4-(4-tert-butyl-alkylphenyl-thio)anthra [2,1-c][1,2,5]thiadiazol-6,11-dione] | > 15 µM
Cc1cccc(Sc2cc3c(c4nsnc24)C(=O)c2ccccc2C3=O)c1 [C47, 4-(m-phenylmethylthio)anthra[2,1-c] [1,2,5]thiadiazol-6,11-dione] | > 15 µM

same assay, conditions: PC-3 prostate cancer cells, read-out: IC50 in PC-3 prostate cancer cells (cell viability analysis)

Compound | IC50
4-(2-fluoro-phenyl thio)anthra[2,1-c] [1,2,5]thiadiazol oxazole-6,11-dione [C33] | 5.48 µM
4-(phenethylthiol)anthra[2,1-c][1,2,5] thiadiazol-6,11-dione [C29] | 19 µM
